Source: patent publication US9102752B2, “Peptide vaccine for prevention and immunotherapy of dementia of the Alzheimer's type” (United Biomedical, Inc., priority 2013, dated 2015)

How the values were obtained:
[1] = system: anti-Aβ antibodies in macaque antisera; assay: Specificity analysis (10-mer peptide ELISA) of antisera from Cynomolgus macaques; type: binding
[2] = system: anti-Aβ antibodies in sera of vaccinated patients; assay: Epitope mapping, competitive binding inhibition EIA with patient sera (10-mer peptides, IC50); design: species or system human; Epitope mapping, fine specificity analysis, serum of subject P210: unit not given here; details: for Epitope mapping, fine specificity analysis, serum of subject P101: serum 16 wpi of vaccinated patient P101; for Epitope mapping, fine specificity analysis, serum of subject P102: serum 16 wpi of vaccinated patient P102; for Epitope mapping, fine specificity analysis, serum of subject P103: serum 16 wpi of vaccinated patient P103; for Epitope mapping, fine specificity analysis, serum of subject P104: serum 16 wpi of vaccinated patient P104; for Epitope mapping, fine specificity analysis, serum of subject P105: serum 16 wpi of vaccinated patient P105; for Epitope mapping, fine specificity analysis, serum of subject P106: serum 16 wpi of vaccinated patient P106; for Epitope mapping, fine specificity analysis, serum of subject P107: serum 16 wpi of vaccinated patient P107; for Epitope mapping, fine specificity analysis, serum of subject P108: serum 16 wpi of vaccinated patient P108; for Epitope mapping, fine specificity analysis, serum of subject P109: serum 16 wpi of vaccinated patient P109; for Epitope mapping, fine specificity analysis, serum of subject P201: serum 16 wpi of vaccinated patient P201; for Epitope mapping, fine specificity analysis, serum of subject P202: serum 16 wpi of vaccinated patient P202; for Epitope mapping, fine specificity analysis, serum of subject P203: serum 16 wpi of vaccinated patient P203; for Epitope mapping, fine specificity analysis, serum of subject P204: serum 16 wpi of vaccinated patient P204; for Epitope mapping, fine specificity analysis, serum of subject P205: serum 16 wpi of vaccinated patient P205; for Epitope mapping, fine specificity analysis, serum of subject P206: serum 16 wpi of vaccinated patient P206; for Epitope mapping, fine specificity analysis, serum of subject P207: serum 16 wpi of vaccinated patient P207; for Epitope mapping, fine specificity analysis, serum of subject P208: serum 16 wpi of vaccinated patient P208; for Epitope mapping, fine specificity analysis, serum of subject P209: serum 16 wpi of vaccinated patient P209; for Epitope mapping, fine specificity analysis, serum of subject P210: serum 16 wpi of vaccinated patient P210
[3] = antisera of macaques given UBI AD Vaccine 150 μg/dose, 9 WPI
[4] = antisera of macaques given UBI AD Vaccine 150 μg/dose, 15 WPI
[5] = antisera of macaques given UBI AD Vaccine 750 μg/dose, 9 WPI
[6] = antisera of macaques given UBI AD Vaccine 750 μg/dose, 15 WPI

| Substance | Reactivity of antisera with peptide (specificity analysis ELISA) [1, 3] | Reactivity of antisera with peptide (specificity analysis ELISA) [1, 4] | Reactivity of antisera with peptide (specificity analysis ELISA) [1, 5] | Reactivity of antisera with peptide (specificity analysis ELISA) [1, 6] | Epitope mapping, fine specificity analysis, serum of subject P101 [2] | Epitope mapping, fine specificity analysis, serum of subject P102 [2] | Epitope mapping, fine specificity analysis, serum of subject P103 [2] | Epitope mapping, fine specificity analysis, serum of subject P104 [2] | Epitope mapping, fine specificity analysis, serum of subject P105 [2] | Epitope mapping, fine specificity analysis, serum of subject P106 [2] | Epitope mapping, fine specificity analysis, serum of subject P107 [2] | Epitope mapping, fine specificity analysis, serum of subject P108 [2] | Epitope mapping, fine specificity analysis, serum of subject P109 [2] | Epitope mapping, fine specificity analysis, serum of subject P201 [2] | Epitope mapping, fine specificity analysis, serum of subject P202 [2] | Epitope mapping, fine specificity analysis, serum of subject P203 [2] | Epitope mapping, fine specificity analysis, serum of subject P204 [2] | Epitope mapping, fine specificity analysis, serum of subject P205 [2] | Epitope mapping, fine specificity analysis, serum of subject P206 [2] | Epitope mapping, fine specificity analysis, serum of subject P207 [2] | other results |
| --- | --- | --- | --- | --- | --- | --- | --- | --- | --- | --- | --- | --- | --- | --- | --- | --- | --- | --- | --- | --- | --- |
| 8 (TEEISEVKMD; PEPTIDE (1)..(10) Abeta -9-1 or APP 770(T663-D672); listed as Homo sapiens) [compound 8] | 0.075 | 0.084 | 0.061 | 0.078 | 0 | 0 | 0 | 0 | 0 | 0 | 0 | 0 | 0 | 0 | 0 | 0 | 0 | 0 | 0 | 0 | Epitope mapping, fine specificity analysis, serum of subject P208 [2]: 0; Epitope mapping, fine specificity analysis, serum of subject P209 [2]: 0; Epitope mapping, fine specificity analysis, serum of subject P210 [2]: 0 |
| 9 (EEISEVKMDA; PEPTIDE (1)..(10) Abeta -8-2 or APP 770(E664-A673); listed as Homo sapiens) [compound 9] | 0.082 | 0.092 | 0.081 | 0.076 | 0 | 0 | 0 | 0 | 0 | 0 | 0 | 0 | 0 | 0 | 0 | 0 | 0 | 0 | 0 | 0 | Epitope mapping, fine specificity analysis, serum of subject P208 [2]: 0; Epitope mapping, fine specificity analysis, serum of subject P209 [2]: 0; Epitope mapping, fine specificity analysis, serum of subject P210 [2]: 0 |
| 10 (EISEVKMDAE; PEPTIDE (1)..(10) Abeta -7-3 or APP 770(E665-E674); listed as Homo sapiens) [compound 10] | 0.060 | 0.056 | 0.064 | 0.053 | 0 | 0 | 0 | 0 | 0 | 0 | 0 | 0 | 0 | 0 | 0 | 0 | 0 | 0 | 0 | 0 | Epitope mapping, fine specificity analysis, serum of subject P208 [2]: 0; Epitope mapping, fine specificity analysis, serum of subject P209 [2]: 0; Epitope mapping, fine specificity analysis, serum of subject P210 [2]: 0 |
| 11 (ISEVKMDAEF; PEPTIDE (1)..(10) Abeta -6-4 or APP 770(I666-F675); listed as Homo sapiens) [compound 11] | 0.055 | 0.058 | 0.063 | 0.062 | 0 | 0 | 0 | 0 | 0 | 0 | 0 | 0 | 0 | 0 | 0 | 0 | 0 | 0 | 0 | 0 | Epitope mapping, fine specificity analysis, serum of subject P208 [2]: 0; Epitope mapping, fine specificity analysis, serum of subject P209 [2]: 0; Epitope mapping, fine specificity analysis, serum of subject P210 [2]: 0 |
| 12 (SEVKMDAEFR; PEPTIDE (1)..(10) Abeta -5-5 or APP 770(S667-R676); listed as Homo sapiens) [compound 12] | 0.056 | 0.053 | 0.054 | 0.050 | 10 | 0 | 0 | 0 | 0 | 0 | 0 | 0 | 0 | 0 | 0 | 0 | 0 | 0 | 0 | 0 | Epitope mapping, fine specificity analysis, serum of subject P208 [2]: 0; Epitope mapping, fine specificity analysis, serum of subject P209 [2]: 0; Epitope mapping, fine specificity analysis, serum of subject P210 [2]: 0 |
